According to patent US12583841B2, “Tetrahydropyrrolocyclic compound and application thereof” (Breakthrough Pharmaceuticals Inc., priority 2021, dated 2026):
Marks after values point to notes of the source that are not given here.

Key:
Type in all cases: in vivo
[1] = Pharmacokinetic parameters in Beagle dog plasma
Procedure: (§1) 4 healthy male Beagle dogs were selected and randomly divided into two groups, with 2 dogs in each group. One group was given the test compound at 1 mg/kg by intravenous injection, and the other group was given the test compound at 5 mg/kg by intragastric administration. Plasma samples were collected at 0.033, 0.083, 0.25, 0.5, 1.0, 2.0, 4.0, 6.0, 8.0, and 24 h after administration for the intravenous injection group and intragastric administration group, respectively. Quantitative analysis of all biological samples was carried out by LC-MS/MS method, and the WinNonlin™ Version 6.3 (Pharsight, Mountain View, CA) pharmacokinetic software was used to calculate the relevant pharmacokinetic parameters by the non-compartmental model linear logarithmic trapezoidal method. AUC0-last represents area under the plasma concentration-time curve from time zero to the last detectable concentration time point; p.o. represents oral; i.v. represents intravenous injection; T1/2 represents half-life; CL represents clearance rate; Vd represents apparent volume of distribution; Cmax represents peak concentration; Tmax represents time to peak; F % represents oral bioavailability.

SD rats = assay: Effect on sleep in SD rats by electroencephalogram/electromyography telemetry; details: SD rat EEG, Mean±SEM; for Sleep latency: blank vehicle 32 ± 3.1; for NREM sleep time within 7 h after administration: blank vehicle 102 ± 18; for Total awake time within 7 h after administration: blank vehicle 303 ± 20
Procedure: Test purpose: to evaluate the effect of test substance on sleep in SD rats by electroencephalogram/electromyography telemetry (EEG).
Test scheme: 36 male SD rats aged 5-6 weeks needed an adaptation period of 5-15 days after arriving at the facility, during which the experimental animals were placed in an alternating light and dark environment for 12 h for adaptation (light on: 19:00; light off: 07:00) to adjust the rhythm time, and the health of the animals was monitored every day. Animals needed to be surgically implanted with electroencephalogram electrode and electromyography electrode for later telemetry data collection. On the day of the operation experiment, the animals were anesthetized with Zoletil (i.p., 20 mg/kg) combined with xylazine (i.p., 8 mg/kg). After anesthesia, the animals were fixed by brain stereotaxic apparatus. After the head has hair clipped and was disinfected, the skin of the head was cut, and the four corners were clamped with hemostats to fully expose the skull. The periosteum was peeled off and wiped with dry absorbent cotton until the surface was clean. A hole was drilled according to the type of implanter, and an electrode was implanted and in contact with the dura mater. The electrode was fixed on the skull with dental cement. At the same time, the cement dripping on the tissue and skin was cleaned up. The 2 electromyography electrodes were respectively inserted into the neck muscles in parallel, and the two ends were fixed with sutures to prevent their ends from touching each other. The implanter was then placed under the skin, and the surgical wound was sutured and sterilized. After the operation, the rats were carefully placed in a clean recovery cage, lying on their sides to ensure a smooth airway. The rats were raised in a single cage and placed in a shielded recovery room, in which the light and dark automatically alternated for 12 h (light on: 19:00, light off: 07:00), the temperature was 20-26° C., and the relative humidity was 40-70%. After the operation, the animals were given nursing care for 3 days. The surgical incision was treated with cephradine powder locally, gentamicin at 4-8 mg/kg was subcutaneously administered, and meloxicam at 0.1 mL/rat was injected subcutaneously for 3 consecutive days. The experiment was carried out after 7-10 days of recovery and the animals were randomly divided into groups according to their weight the day before the experiment.
On the day of the experiment, the basic electroencephalogram and electromyography were recorded first, and then the administration began. During and after the administration, the electroencephalogram and electromyography were recorded continuously until 24 h after the administration. Raw data were collected by DSI system Ponemah software and analyzed by NeuroScore software. The experimental data were represented by the mean±standard error (Mean±SEM), and statistical analysis was performed using the one-way variance method. Compared with the blank vehicle group, P<0.05 indicated a significant difference, and represented as *; P<0.01 indicated a very significant difference, and represented as **; P<0.001 indicated an extremely significant difference, and represented as ***.

[2] = Pharmacokinetic parameters in SD rat plasma
Procedure: as §1, with “healthy SD rats aged 6-9 weeks” for “healthy male Beagle dogs”, “2 rats” for “2 dogs”, “at 2” for “at 1”, “at 10” for “at 5”, “at” for “at 0.033,”
as §1, with “male SD rats aged 6-9 weeks” for “male Beagle dogs”, “2 rats” for “2 dogs”, “at 2” for “at 1”, “at 10” for “at 5”, “at” for “at 0.033,”

[3] = male, Sprague-Dawley (SD), plasma, iv, i.v. 2 mg/kg
[4] = male, Sprague-Dawley (SD), plasma, po, p.o. 10 mg/kg

SMILES: COc1ccc(-n2nccn2)c(C(=O)N2C(c3nc4ccc(OC)cc4[nH]3)CC3CC32)c1 (stereo not shown) [Compound 8]
- AUC(0-t) ([1]; male, plasma, iv, i.v. 1 mg/kg): 15.3 µM·h
- clearance ([1]; male, plasma, iv, i.v. 1 mg/kg): 2.57 mL/min/kg
- half-life ([1]; male, plasma, iv, i.v. 1 mg/kg): 167 min
- Vd ([1]; male, plasma, iv, i.v. 1 mg/kg, read-out: Vdss): 0.41 L/kg
- AUC(0-t) ([1]; male, plasma, po, p.o. 5 mg/kg): 26.2 µM·h
- Cmax ([1]; male, plasma, po, p.o. 5 mg/kg): 6.18 µM
- Tmax ([1]; male, plasma, po, p.o. 5 mg/kg): 60 min
- F ([1]; p.o. 5 mg/kg vs i.v. 1 mg/kg): 34%
- Sleep latency (SD rats; 5 mg/kg): 27 ± 8.1 min
- NREM sleep time within 7 h after administration (SD rats; 5 mg/kg): 129 ± 17 min
- Total awake time within 7 h after administration (SD rats; 5 mg/kg): 274 ± 19 min
- Sleep latency (SD rats; 10 mg/kg): 15 ± 2.9** min
- NREM sleep time within 7 h after administration (SD rats; 10 mg/kg): 144 ± 16 min
- Total awake time within 7 h after administration (SD rats; 10 mg/kg): 250 ± 21 min
- Sleep latency (SD rats; 30 mg/kg): 7 ± 1.3*** min
- NREM sleep time within 7 h after administration (SD rats; 30 mg/kg): 171 ± 11** min
- Total awake time within 7 h after administration (SD rats; 30 mg/kg): 228 ± 12* min
- AUC(0-t) [2, 3]: 1.76 µM·h
- clearance [2, 3]: 44 mL/min/kg
- half-life [2, 3]: 12 min
- Vd ([2]; male, Sprague-Dawley (SD), plasma, iv, i.v. 2 mg/kg, read-out: Vdss): 0.57 L/kg
- AUC(0-t) [2, 4]: 1.45 µM·h
- Cmax [2, 4]: 1.03 µM
- Tmax [2, 4]: 15 min
- F ([2]; p.o. 10 mg/kg vs i.v. 2 mg/kg): 17%
